Results on 9 compounds are retold here after EP0942911B1, “BENZOPYRANOPYRROLE AND BENZOPYRANOPYRIDINE ALPHA-1 ADRENERGIC COMPOUNDS” (Abbott Laboratories, priority 1996, dated 1998).

Where a name gives a salt, the structure may show the parent alone.

Test [1] has as its system α-1A adrenoreceptor. Nature of the test: Functional antagonism: inhibition of PE-induced contraction of canine prostate strips (Schild plot). The conditions noted are these: phenylephrine-induced contraction. It counts as cell-based. An excerpt:
Canine prostate strips were used in vitro as previously described (Hieble, J.P., Boyce, A.J. and Caine, M., Fed. Proc., 45: 2609-2614 (1986)), to determine antagonist potencies against phenylephrine-induced contractions.
(§1) Functional assays indicative of pharmacologically defined α-1 adrenoreceptors were used to further characterize compounds. Inhibition of phenylephrine (PE)-induced contraction of canine prostate smooth muscle can be correlated with α-1A adrenoreceptor activation. […] For each of these models, agonist dose response curves were repeated against increasing concentrations of test agent to derive a Schild plot [log ([…]) against log (molarity of test agent)] to determine the pA2.

For a further test, the system named is α-1 Adrenoceptors. Nature of the test: Functional antagonism in rat aorta (method not described). In kind it is cell-based.
The next test deals with T1, α-1d adrenoreceptor (Rattus norvegicus, UniProt P23944).
T1 sequence (P23944 1-561): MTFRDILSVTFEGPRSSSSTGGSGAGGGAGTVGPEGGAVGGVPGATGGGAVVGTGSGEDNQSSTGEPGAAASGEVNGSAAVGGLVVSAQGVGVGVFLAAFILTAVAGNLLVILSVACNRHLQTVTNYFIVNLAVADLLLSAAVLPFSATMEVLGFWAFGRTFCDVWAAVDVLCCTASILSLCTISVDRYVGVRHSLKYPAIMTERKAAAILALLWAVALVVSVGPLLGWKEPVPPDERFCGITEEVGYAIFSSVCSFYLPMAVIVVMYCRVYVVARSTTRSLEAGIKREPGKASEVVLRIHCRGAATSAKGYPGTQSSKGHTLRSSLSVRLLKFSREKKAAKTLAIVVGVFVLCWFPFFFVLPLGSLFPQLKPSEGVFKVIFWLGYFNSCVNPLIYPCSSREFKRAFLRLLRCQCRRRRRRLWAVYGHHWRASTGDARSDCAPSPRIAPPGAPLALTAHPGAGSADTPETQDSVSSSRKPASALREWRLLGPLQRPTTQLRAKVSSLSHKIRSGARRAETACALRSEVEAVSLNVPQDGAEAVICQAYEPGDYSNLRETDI
Briefly: biochemical. The conditions noted are these: [3H]-prazosin radioligand; cloned receptor in LTK cell membranes; read-out: Radioligand Binding (Ki, nM) 1d (Rat). It counts as binding. In short, it runs like this: (§2)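 Cloned α-1a, α-1b and α-1d adrenoreceptors stably expressed in mouse LTK fibroblasts; membranes prepared in 50 mM Tris-HCl, pH 7.4. Radioligand binding per Greengrass and Bremner method, scintillation counting. The α-1A subtype used rat submaxillary gland membranes.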

The target of test [2] is T2, α-1b adrenoreceptor (Mesocricetus auratus, UniProt P18841).
T2 sequence (P18841 1-515): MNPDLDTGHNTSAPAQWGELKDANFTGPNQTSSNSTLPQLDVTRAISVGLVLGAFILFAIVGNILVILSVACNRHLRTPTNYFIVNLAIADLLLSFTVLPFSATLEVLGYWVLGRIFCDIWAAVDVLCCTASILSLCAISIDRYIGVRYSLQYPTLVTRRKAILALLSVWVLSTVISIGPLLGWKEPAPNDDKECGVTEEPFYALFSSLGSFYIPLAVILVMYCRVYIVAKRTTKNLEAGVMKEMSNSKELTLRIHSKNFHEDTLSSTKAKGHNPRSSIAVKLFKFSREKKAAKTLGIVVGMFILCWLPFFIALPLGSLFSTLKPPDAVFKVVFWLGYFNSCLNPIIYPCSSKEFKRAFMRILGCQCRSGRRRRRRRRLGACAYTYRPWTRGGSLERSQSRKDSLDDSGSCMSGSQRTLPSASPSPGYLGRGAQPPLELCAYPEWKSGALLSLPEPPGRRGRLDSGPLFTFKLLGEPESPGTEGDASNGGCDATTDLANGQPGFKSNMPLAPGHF
Nature of the test: biochemical. In kind it is binding, hamster. Particulars: [3H]-prazosin radioligand; cloned receptor in LTK cell membranes; read-out: Radioligand Binding (Ki, nM) 1b (Hamster). An outline of the steps:
as §2

For test [3], the target named is T3, α-1a adrenoreceptor (Bos taurus, UniProt P18130).
T3 sequence (P18130 1-466): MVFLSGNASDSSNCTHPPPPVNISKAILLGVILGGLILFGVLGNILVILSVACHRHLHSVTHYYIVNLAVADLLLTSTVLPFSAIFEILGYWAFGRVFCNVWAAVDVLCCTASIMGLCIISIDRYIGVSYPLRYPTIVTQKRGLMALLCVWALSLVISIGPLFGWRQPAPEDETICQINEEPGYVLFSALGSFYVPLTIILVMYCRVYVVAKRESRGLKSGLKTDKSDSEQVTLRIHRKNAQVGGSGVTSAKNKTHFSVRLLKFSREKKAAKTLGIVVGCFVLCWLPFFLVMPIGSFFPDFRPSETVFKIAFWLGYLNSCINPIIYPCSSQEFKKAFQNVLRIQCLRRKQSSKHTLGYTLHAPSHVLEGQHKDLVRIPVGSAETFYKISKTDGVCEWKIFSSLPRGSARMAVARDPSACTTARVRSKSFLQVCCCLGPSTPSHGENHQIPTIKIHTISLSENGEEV
Briefly: biochemical. It counts as binding, bovine. The conditions noted are these: [3H]-prazosin radioligand; cloned receptor in LTK cell membranes; read-out: Radioligand Binding (Ki, nM) 1a (Bovine). An outline of the steps:
as §2

The target in test [4] is T4, α-1A adrenoreceptor (rat submaxillary gland) (Rattus norvegicus, UniProt P43140).
T4 sequence (P43140 1-466): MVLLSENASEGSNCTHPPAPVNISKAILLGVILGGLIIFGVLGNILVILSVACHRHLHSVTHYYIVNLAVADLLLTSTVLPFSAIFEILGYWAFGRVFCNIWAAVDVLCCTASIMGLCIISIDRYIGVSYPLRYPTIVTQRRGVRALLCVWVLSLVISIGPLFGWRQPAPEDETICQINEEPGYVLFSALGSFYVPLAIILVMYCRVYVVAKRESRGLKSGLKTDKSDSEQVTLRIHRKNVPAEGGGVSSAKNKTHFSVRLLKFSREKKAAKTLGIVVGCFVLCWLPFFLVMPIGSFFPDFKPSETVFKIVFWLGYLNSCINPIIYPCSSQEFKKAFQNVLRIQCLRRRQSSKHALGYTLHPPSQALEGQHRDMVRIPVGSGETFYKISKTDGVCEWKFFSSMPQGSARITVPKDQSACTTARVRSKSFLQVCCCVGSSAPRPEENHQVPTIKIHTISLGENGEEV
Briefly: biochemical. It counts as binding. The conditions noted are these: [3H]-prazosin radioligand; rat submaxillary gland membranes; read-out: Radioligand Binding (Ki, nM) 1A (Rat). In short, it runs like this:
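Radioligand binding to α-1A sites in membrane homogenates of rat submaxillary gland, run after Greengrass and Bremner. Bound radioactivity counted by liquid scintillation.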

Test [5] concerns the target T5, α-1B adrenoreceptor (Rattus norvegicus, UniProt P15823).
T5 construct: from tissue; host or cells: rat spleen
T5 sequence (P15823 1-515): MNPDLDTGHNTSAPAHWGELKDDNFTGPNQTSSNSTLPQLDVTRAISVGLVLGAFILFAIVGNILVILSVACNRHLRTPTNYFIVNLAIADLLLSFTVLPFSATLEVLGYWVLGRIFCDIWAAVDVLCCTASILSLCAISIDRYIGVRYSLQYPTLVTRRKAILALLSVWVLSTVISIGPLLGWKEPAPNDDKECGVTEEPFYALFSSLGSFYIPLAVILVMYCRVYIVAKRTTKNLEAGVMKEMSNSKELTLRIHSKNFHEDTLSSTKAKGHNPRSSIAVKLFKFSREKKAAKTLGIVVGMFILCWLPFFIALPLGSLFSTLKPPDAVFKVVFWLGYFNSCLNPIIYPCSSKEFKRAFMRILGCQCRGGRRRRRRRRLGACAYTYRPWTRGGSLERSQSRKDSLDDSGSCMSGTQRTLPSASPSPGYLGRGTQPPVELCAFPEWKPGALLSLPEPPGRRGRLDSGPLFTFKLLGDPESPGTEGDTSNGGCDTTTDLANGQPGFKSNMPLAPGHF
Nature of the test: cell-based. The conditions noted are these: phenylephrine-induced contraction; Schild plot.
Excerpt: as §1

In the case of `COc1cccc2c1[C@@H]1CCN(CCCCn3c(=O)[nH]c4c(sc5cccnc54)c3=O)C[C@H]1CO2` (racemic) [Example 88, 3-[4-((±)-trans-10-Methoxy-1,3,4,4a,5,10b-hexahydro-2H-[1]-benzopyrano[3,4-c]pyrido-3-yl)butyl]-pyrido[2',3':4,5]thieno[3,2-d]pyrimidine-2,4(1H,3H)-dione hydrochloride], the “In Vitro Characterization (pA2) Dog Prostate” value in the test on α-1A adrenoreceptor [1] amounted to 8.09.
Regarding `COc1cccc2c1[C@@H]1CN(CCCCn3c(=O)[nH]c4c(sc5nc(Cl)ccc54)c3=O)C[C@@H]1CO2` [Example 32, 3-[4-((3aR,9bR)-cis-9-Methoxy-1,2,3,3a,4,9b-hexahydro-[1]-benzopyrano[3,4-c]pyrrol-2-yl)butyl]-7-chloro-pyrido[3',2':4,5]thieno[3,2-d]pyrimidine-2,4(1H,3H)-dione hydrochloride], the “In Vitro Characterization (pA2) Rat Aorta” value in the test on α-1 Adrenoceptors stood at 9.31. In addition, on α-1d adrenoreceptor, the Ki was found to be 0.86 nM.
Take `COc1cnc2sc3c(=O)n(CCCCN4CC[C@H]5c6c(OC)cccc6OC[C@@H]5C4)c(=O)[nH]c3c2n1` [Example 99, 3-[4-((4aS,10bR)-trans-10-Methoxy-1,3,4,4a,5,10b-hexahydro-2H-[1]-benzopyrano[3,4-c]pyrido-3-yl)butyl]-8-methoxy-pyrazino[2',3':4,5]thieno[3,2-d]pyrimidine-2,4(1H,3H)-dione hydrochloride]: the Ki on α-1b adrenoreceptor [2] was determined as 57.1 nM; on α-1a adrenoreceptor [3] it was 1.73 nM; in test [4] it was 14.9 nM; on α-1d adrenoreceptor it was 5.81 nM.
For `COc1cccc2c1[C@@H]1CCN(CCCCn3c(=O)[nH]c4c(sc5ncc(-c6ccccc6)nc54)c3=O)C[C@H]1CO2` [Example 100, 3-[4-((4aS,10bR)-trans-10-Methoxy-1,3,4,4a,5,10b-hexahydro-2H-[1]-benzopyrano[3,4-c]pyrido-3-yl)butyl]-8-phenyl-pyrazino[2',3':4,5]thieno[3,2-d]pyrimidine-2,4(1H,3H)-dione hydrochloride], in that order: 27 nM, 5.83 nM, 30.5 nM and 7.59 nM.
Take `COc1cccc2c1[C@@H]1CCN(CCCCn3c(=O)[nH]c4c(sc5ccc(-c6ccccc6)nc54)c3=O)C[C@H]1CO2` [Example 101, 3-[4-((4aS,10bR)-trans-10-Methoxy-1,3,4,4a,5,10b-hexahydro-2H-[1]-benzopyrano[3,4-c]pyrido-3-yl)butyl]-8-phenyl-pyrido[2',3':4,5]thieno[3,2-d]pyrimidine-2,4(1H,3H)-dione dihydrochloride]: the inhibition constant (Ki) was 8.41 nM at α-1b adrenoreceptor [2], 0.063 nM at α-1a adrenoreceptor [3], 1.27 nM in test [4] and 0.597 nM at α-1d adrenoreceptor.
For `COc1cccc2c1[C@@H]1CCN(CCCCn3c(=O)[nH]c4c(sc5nc(Cl)ccc54)c3=O)C[C@H]1CO2` [Example 102, 3-[4-((4aS,10bR)-trans-10-Methoxy-1,3,4,4a,5,10b-hexahydro-2H-[1]-benzopyrano[3,4-c]pyrido-3-yl)butyl]-7-chloro-pyrido[3',2':4,5]thieno[3,2-d]pyrimidine-2,4(1H,3H)-dione hydrochloride], the Ki on α-1b adrenoreceptor [2] stood at 6.26 nM; on α-1a adrenoreceptor [3], 0.113 nM; in test [4], 1.89 nM; at α-1d adrenoreceptor it was 0.651 nM.
The matching figures for `COc1ccc2c(n1)sc1c(=O)n(CCCCN3CC[C@H]4c5c(OC)cccc5OC[C@@H]4C3)c(=O)[nH]c12` [Example 103, 3-[4-((4aS,10bR)-trans-10-Methoxy-1,3,4,4a,5,10b-hexahydro-2H-[1]-benzopyrano[3,4-c]pyrido-3-yl)butyl]-7-methoxy-pyrido[3',2':4,5]thieno[3,2-d]pyrimidine-2,4(1H,3H)-dione hydrochloride]: 3.33 nM, 0.115 nM, 0.909 nM and 0.243 nM.
On to `COc1ccc(O)c2c1[C@@H]1CN(CCCCn3c(=O)[nH]c4c(sc5ncc(-c6ccccc6)nc54)c3=O)C[C@@H]1CO2` [Example 105, 3-[4-((3aR,9bR)-cis-6-Hydroxy-9-methoxy-1,2,3,3a,4,9b-hexahydro-[1]-benzopyrano[3,4-c]pyrrol-2-yl)butyl]-8-phenyl-pyrazino[2',3':4,5]thieno[3,2-d]pyrimidine-2,4(1H,3H)-dione], for which the Ki on α-1b adrenoreceptor [2] was 1620 nM; at α-1a adrenoreceptor [3] it was 6.42 nM; in test [4] it was 26.3 nM; on α-1d adrenoreceptor, 55.9 nM.
Turning to `COc1cc2nc(N3CCN(C(=O)C4CCCO4)CC3)nc(N)c2cc1OC` (stereo not shown) [Terazosin, terazosin, reference compound], the Ki came to 3.31 nM on α-1a adrenoreceptor [3] and 0.689 nM at α-1d adrenoreceptor. Moreover, the “In Vitro Characterization (pA2) Rat Spleen” value at α-1B adrenoreceptor [5] amounted to 8.60. The “In Vitro Characterization (pA2) Rat Aorta” value in the test on α-1 Adrenoceptors is listed as 8.65.
